In ChEMBL document CHEMBL1201862, “PubChem BioAssay data set” (2004):
The source made the active and inactive calls.

Experiments:
cells [1] = format: functional, cell-based
cells [2] = format: functional, cell-based; remark: listed apart in the source
cells [3] = experiment: cells
[4] = inhibitors of intracellular T. cruzi replication, confirmation, NIH3T3 host cells, beta-gal luminescence (AID 2044); format: functional, cell-based;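 note: intracellular parasites grown in NIH/3T3 mouse fibroblasts as host cells; luminescent beta-galactosidase reporter signal from transgenic T. cruzi replicating inside host cells; inhibitors lower the luminescence signal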
[5] = cytotoxicity toward NIH3T3 fibroblasts, dose response, counter-screen, cell-based, ATP luminescence, mouse fibroblasts (AID 2010); format: functional;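 note: cells exposed to compound for about 90 hours before reading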
cells [6] = experiment: cells; remark: listed apart in the source
Vero [7] = experiment: cells; format: functional, cell-based; conditions: Chlorocebus sabaeus
[8] = HEp-2 cell cytotoxicity, dose response, cytotoxicity control for RSV inhibitor project, HTS (AID 2410); format: functional; conditions: human respiratory syncytial virus
CAAX prenyl protease 2 = target: T1, CAAX prenyl protease 2 (Saccharomyces cerevisiae S288c, UniProt Q03530); format: biochemical
T1 sequence (Q03530 whole entry): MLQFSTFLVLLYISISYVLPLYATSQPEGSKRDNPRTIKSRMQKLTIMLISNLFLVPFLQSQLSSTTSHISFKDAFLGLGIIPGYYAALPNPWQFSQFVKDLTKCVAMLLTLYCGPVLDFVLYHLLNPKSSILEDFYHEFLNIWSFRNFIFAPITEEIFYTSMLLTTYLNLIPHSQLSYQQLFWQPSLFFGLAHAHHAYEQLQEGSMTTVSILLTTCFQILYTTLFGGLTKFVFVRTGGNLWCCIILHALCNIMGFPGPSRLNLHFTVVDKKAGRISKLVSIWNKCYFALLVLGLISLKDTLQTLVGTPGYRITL

Vero [9] = experiment: cells; format: functional; conditions: Chlorocebus sabaeus
[10] = target: T2, Corticotropin-releasing factor receptor 2/Corticotropin-releasing factor-binding protein (Homo sapiens, UniProt P24387+Q13324); experiment: Dose Response confirmation of uHTS hits for small molecule antagonists of the CRF-binding protein and CRF-R2 receptor complex.; format: functional; conditions: read-out: IC50_Mean
T2 sequence (Q13324 whole entry): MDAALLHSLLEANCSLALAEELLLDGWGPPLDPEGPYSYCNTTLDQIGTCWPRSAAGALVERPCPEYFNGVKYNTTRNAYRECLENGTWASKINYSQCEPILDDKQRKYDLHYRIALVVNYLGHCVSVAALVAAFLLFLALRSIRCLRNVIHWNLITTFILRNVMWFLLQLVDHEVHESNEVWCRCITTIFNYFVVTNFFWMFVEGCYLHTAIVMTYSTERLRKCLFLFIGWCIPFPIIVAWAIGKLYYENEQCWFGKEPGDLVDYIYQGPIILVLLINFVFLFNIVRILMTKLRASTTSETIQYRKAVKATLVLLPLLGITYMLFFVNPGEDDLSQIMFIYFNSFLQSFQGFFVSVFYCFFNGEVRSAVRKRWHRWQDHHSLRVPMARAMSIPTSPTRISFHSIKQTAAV
T2 sequence (P24387 whole entry): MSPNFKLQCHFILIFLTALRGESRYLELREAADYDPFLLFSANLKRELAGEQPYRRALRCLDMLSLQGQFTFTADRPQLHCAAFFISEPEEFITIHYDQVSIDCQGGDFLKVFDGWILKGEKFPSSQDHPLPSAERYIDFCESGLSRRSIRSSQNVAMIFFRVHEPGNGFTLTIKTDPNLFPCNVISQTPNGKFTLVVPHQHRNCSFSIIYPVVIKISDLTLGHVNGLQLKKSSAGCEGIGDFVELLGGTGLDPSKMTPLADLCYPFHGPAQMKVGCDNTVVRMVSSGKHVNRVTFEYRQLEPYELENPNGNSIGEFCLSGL

[11] = target: T2, Corticotropin-releasing factor receptor 2/Corticotropin-releasing factor-binding protein; experiment: activators of CRF receptor 2 with binding protein – uHTS hits, confirmation (AID 602473); format: functional; conditions: read-out: EC50_Mean
[12] = off-target signal loss in HeLa-CEM21 co-culture – HeLa F-luc CTL cells, cherry-picked, counter-screen for HIV-1 Env fusion inhibitor project, dose response (AID 652040); format: functional, cell-based;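 note: potency for signal decrease marking cytotoxic or nonspecific inhibition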
[13] = ZM109 Env clade C HIV-1 fusion inhibitors, dose response, HeLa effector, CEM target cells, luciferase, cherry-pick (AID 652058); format: functional, cell-based
[14] = C. albicans growth with fluconazole, confirmation, fluorescence, retest (AID 2467); format: functional, cell-based
[15] = inhibitors of HIV Env-driven cell fusion, dose response, cherry-pick (AID 652057); format: functional, cell-based
[16] = inhibitors of clade B AD8 Env fusion, dose response, cell-based, cherry-pick (AID 652062); format: functional;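 note: luciferase signal from cell-cell fusion driven by HIV-1 clade B AD8 Env; potency is for inhibitors of fusion seen as a drop in luminescence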
[17] = NIH-3T3 fibroblast cytotoxicity, dose response, cytotoxicity control, cell-based, fluorescence, Alamar Blue, secondary assay (AID 2327); format: functional;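 note: NIH-3T3 mouse fibroblasts cultured with fluconazole at 8 µg/mL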
[18] = target: DNA dC->dU-editing enzyme APOBEC-3A (Homo sapiens, UniProt P31941); experiment: APOBEC3A DNA deaminase inhibitors, dose response, biochemical (AID 504722); format: functional
[19] = target: DNA dC->dU-editing enzyme APOBEC-3G (Homo sapiens, UniProt Q9HC16); experiment: Dose Response confirmation of small molecule APOBEC3G DNA Deaminase Inhibitors via a fluorescence-based single-stranded DNA deaminase assay. [Related pubchem assays (depositor defined):AID493012, AID493028]; format: functional
[20] = target: T3, Heat shock factor protein 1 (Mus musculus, UniProt P38532); experiment: HSF1 potentiators in luciferase reporter cells, confirmation, cell-based, NIH3T3, luminescence, dose retest (AID 435004); format: functional;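 note: stress induced by proteasome inhibitor MG132 added 30 min after compound; luciferase reporter driven by HSF1 response element in NIH3T3 cells; actives raise luminescence as potentiators of the MG132 stress response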
T3 sequence (P38532 whole entry): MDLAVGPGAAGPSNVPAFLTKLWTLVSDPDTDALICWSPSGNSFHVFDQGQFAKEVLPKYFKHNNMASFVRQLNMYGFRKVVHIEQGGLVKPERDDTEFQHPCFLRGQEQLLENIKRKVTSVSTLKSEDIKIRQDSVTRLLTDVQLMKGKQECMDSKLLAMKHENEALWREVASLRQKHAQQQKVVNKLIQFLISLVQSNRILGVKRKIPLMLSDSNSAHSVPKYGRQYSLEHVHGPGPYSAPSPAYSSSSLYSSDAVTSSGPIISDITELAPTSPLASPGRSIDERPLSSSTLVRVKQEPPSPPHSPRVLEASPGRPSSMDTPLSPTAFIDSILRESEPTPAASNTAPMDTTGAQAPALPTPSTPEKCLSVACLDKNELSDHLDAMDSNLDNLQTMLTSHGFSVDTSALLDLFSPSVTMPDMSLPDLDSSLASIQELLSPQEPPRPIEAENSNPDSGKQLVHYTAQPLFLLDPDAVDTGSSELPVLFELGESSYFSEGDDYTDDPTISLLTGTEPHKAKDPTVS

[21] = Vero E6 cell cytotoxicity, dose response, cytotoxicity control for non-replicating M. tuberculosis project, secondary assay (AID 492998); format: functional, VeroE6; conditions: Vero C1008
[22] = THP-1 cell cytotoxicity, dose response, cytotoxicity control for non-replicating M. tuberculosis project (AID 489025); format: functional

Chain of DNA dC->dU-editing enzyme APOBEC-3A (P31941 whole entry): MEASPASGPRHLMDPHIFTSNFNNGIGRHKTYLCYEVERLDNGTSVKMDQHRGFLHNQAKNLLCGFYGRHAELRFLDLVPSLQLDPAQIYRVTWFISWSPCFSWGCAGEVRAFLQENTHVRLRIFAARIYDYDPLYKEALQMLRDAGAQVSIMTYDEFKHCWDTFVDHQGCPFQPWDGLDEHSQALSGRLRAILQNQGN
Chain of DNA dC->dU-editing enzyme APOBEC-3G (Q9HC16 whole entry): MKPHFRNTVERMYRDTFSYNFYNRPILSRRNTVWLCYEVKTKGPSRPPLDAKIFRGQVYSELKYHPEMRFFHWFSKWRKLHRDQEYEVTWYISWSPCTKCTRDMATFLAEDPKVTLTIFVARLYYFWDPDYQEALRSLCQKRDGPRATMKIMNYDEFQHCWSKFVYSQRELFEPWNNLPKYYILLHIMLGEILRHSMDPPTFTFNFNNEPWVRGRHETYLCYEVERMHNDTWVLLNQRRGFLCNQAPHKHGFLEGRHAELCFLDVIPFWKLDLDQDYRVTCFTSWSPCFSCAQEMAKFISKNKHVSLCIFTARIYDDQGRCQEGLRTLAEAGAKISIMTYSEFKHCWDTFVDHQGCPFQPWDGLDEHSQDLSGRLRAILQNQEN

Cc1cc(O)nc(SCC(=O)NCCc2ccccc2)n1
EC50 (cells [1]): > 29.9 µM (inactive) | IC50 (cells [2]): > 29.9 µM (inactive)

CC(C)(CO)CNC1CCCN(C2Cc3ccccc3C2)C1 (stereo not given)
EC50 (cells [3]): 0.12 µM (active) | EC50 [4]: < 0.1 µM (active) | EC50 [5]: 10.5 µM (active)

COCCn1c(SC(C)C(=O)Nc2ncc(Cl)cc2Cl)nc2ccccc21 (stereo not given)
IC50 (cells [6]): 14.8 µM (active) | IC50 (Vero [7]): 8.99 µM (active) | CC50 [8]: 25.5 µM (active)

CCOC(=O)[C@@H]1[C@H]2COc3ccc(Br)cc3[C@@H]2N2C(=O)N(c3cccc(C)c3)C(=O)[C@]12C
AC50 (CAAX prenyl protease 2): 4.52 µM (active)

COc1cc2c(cc1OC)CN(C(=O)c1cccc(S(=O)(=O)N3CCc4ccccc43)c1)CC2
IC50 (cells [6]): 45.9 µM (active) | IC50 (Vero [7]): 19.5 µM (active) | CC50 [8]: 18.7 µM (active) | CC50 (Vero [9]): > 25 µM (active)

O=C(CNc1ccccc1)N/N=C/c1ccc([N+](=O)[O-])o1
EC50 (cells [3]): 0.091 µM (active) | EC50 [4]: < 0.1 µM (active) | EC50 [5]: > 60 µM (not active) | IC50 [10]: > 47.1 µM (inactive) | EC50 [11]: > 53 µM (inactive)

Cc1cc(C[n+]2cc(Cl)ccc2N)c2ncccc2c1
IC50 (cells [6]): 35.7 µM (active) | CC50 [8]: > 50 µM (active)

O=C(NC1CCCCC1)C(c1ccc(Cl)cc1)N(C(=O)c1cnccn1)c1ccc2c(c1)OCO2 (stereo not given)
AC50 [12]: 7.12 µM (active) | AC50 [13]: 2.47 µM (active) | EC50 [14]: > 38 µM (not active) | AC50 [15]: 3.15 µM (active) | AC50 [16]: 1.95 µM (active) | EC50 [17]: > 150 µM (inactive)

Cn1c(S)nnc1-c1csc(-c2ccccc2)n1
IC50 [18]: > 100 µM (inactive) | IC50 [19]: 3.06 µM (active)

CCN(C1CCCCC1)S(=O)(=O)c1ccc(S(=O)(=O)N(CC(=O)Nc2ccccc2)C2CC2)cc1
AC50 [12]: 27.9 µM (active) | AC50 [13]: 6.25 µM (active) | EC50 [4]: 1.93 µM (active) | EC50 [5]: > 60 µM (not active) | AC50 [15]: 4.9 µM (active) | AC50 [16]: 7.31 µM (active)

S=C(NCCc1ccccc1)N1CCn2cccc2C1c1cccnc1 (stereo not given)
EC50 (cells [3]): 0.112 µM (active) | EC50 [4]: < 0.1 µM (active) | EC50 [5]: > 60 µM (not active)

CCOC(=O)Nc1ccc2c(c1)N(C(=O)CCN1CCOCC1)c1ccccc1[S+]2[O-] (stereo not given)
EC50 [20]: > 260 µM (inactive) | CC50 [21]: > 20 µM (active) | CC50 [22]: 26.7 µM (active)
